Experimental data from patent US10588280B2, “Aided delivery of plant treatment agents” (Monsanto Technology LLC, priority 2014, dated 2020).

Experiments:
[1] = system: haploid seedlings derived from 91DUQ1 or 83IDI1; assay: Example 7: serial centrifugation with colchicine at three growth stages (FIG. 4); type: in vivo, maize; conditions: 1250 ppm colchicine, submerged 50 g 3 min then unsubmerged 335 g 3 min, ear with at least four kernels
From the text: Three different growth stages and the effects on DH-related success indicators between the three life stages were compared.
F1 hybrid-derived haploid seedlings derived from either female inbred line 91DUQ1 or male inbred line 83IDI1 were germinated in soil in a greenhouse in standard maize growing conditions. To ensure that the older seedlings would fit into the centrifuge sample container, and to ensure that all seedlings received the same chemical treatments, all seedlings were subjected to a 1% paclobutrazol (PBZ) soil drench treatment at 6 days after planting, 10 ml per plant.
This population of seedlings was subdivided into 3 samples, each comprising several dozen seedlings. Half of the seedlings in each sample were derived from 91DUQ1 and the other half derived from 83IDI1. A first sample was removed from the soil at the V1-V2 growth stage (1 week after planting), a second sample removed from the soil at the V3-V4 stage (2 weeks after planting) and a third sample removed from the soil at the V4-V5 growth stage (3 weeks after planting).
Following removal from the soil, seedlings in each sample were rinsed in water to remove residual soil, then wrapped in a PCS along with several wooden rods, similar that that shown in FIG. 9, and subjected to a first submerged centrifugation in 1250 ppm colchicine at 50 g for 3 min.
Following the first, submerged centrifugation, the plant treatment solution was decanted. The seedlings, with some residual agent clinging to their surfaces, were returned to the empty centrifuge container and subjected to a unsubmerged centrifugation at 335 g for 3 min. […]
Self-pollinations were attempted with each plant that survived the treatment to produce pollen and silks and during the ensuing growth the pollination success, fertilization success and final doubling efficiency were determined within each sample. In this experiment, the doubling efficiency within each growth stage sample was calculated by dividing the number of plants that produced at least one ear comprising at least four kernels by the total number of plants treated.

seedlings = conditions: cited from earlier work
[2] = system: haploid seedlings derived from 91DUQ1 or 83IDI1 (SAM); assay: Example 9: serial centrifugation with colchicine and incubation between spins; type: in vivo, maize; conditions: submerged 100 g 3 min, unsubmerged 340 g 3 min, ear with at least four kernels
From the text: F1 hybrid-derived haploid seedlings derived from either female inbred line 91DUQ1 or male inbred line 83IDI1 were germinated in soil in a greenhouse in standard maize growing conditions and grown to the V1 growth stage (1 week after planting). Next, the seedlings were removed from the soil, rinsed with water to remove residual soil form the plants, and then divided into 4 samples comprising several seedlings of each germplasm per sample.
Each sample was then bundled in a PCS comprising an aluminum foil wrap and wooden rods for support, similar to that shown in FIG. 9. Once bundled in a PCS, each sample was contacted by a plant treatment solution comprising either 600 ppm or 800 ppm colchicine such that the SAM of each plant was entirely submerged, and then each sample was centrifuged at 100 g for 3 min with the SAMs submerged in the reserve doubling agent during centrifugation.
Following the submerged centrifugation, plants were removed from the centrifuge container and while some doubling solution from the first centrifugation remained clinging to the plants, the roots and bottom half of each stem were rinsed in water to remove any doubling agent from that end of the plant. Then each bundled sample was incubated in an enclosed, humid environment for one of the four incubation periods listed Table 8.
Following each respective incubation period, the bundled samples were removed from the humid enclosure and subjected to an unsubmerged centrifugation at 340 g for 3 min, wherein the only doubling solution that contacted the plants was that which remained on the plants from the previous submerged centrifugation, i.e. no additional doubling solution was added to the plants after the first centrifugation.
Following the second centrifugation, the plants were removed from the centrifugation container and rinsed with water to remove any remaining colchicine solution, and then recovered and tended in a light, humidity, and temperature-controlled greenhouse for several days before being transplanted to a nursery green house where they were tended under standard maize growing conditions until they grew to maturity and flowered.
Self-pollinations were attempted with each plant that survived the treatment to produce pollen and final doubling efficiencies were determined within each treatment. In this experiment, the doubling efficiency within each treatment sample was calculated by dividing the number of plants of each treatment sample that produced at least one ear comprising at least four kernels by the total number of plants subjected to that set of treatment conditions.

haploid corn seedlings = assay: Example 5: field transplanting survival after single or serial spin with colchicine; type: in vivo; conditions: for 3-wk Survival (field transplanting): 50 g
Experimental: Haploid corn seedlings derived from a cross between commercial inbred 01DKD2 and the inducer KHI1 or commercial inbred 83IDI1 and KHI1 were treated by either single spin or serial spin centrifugation methods and recovered in a light, moisture, and temperature controlled environment for approximately 15 hours. Plants were then transplanted into a field and tended for three weeks, after which plant survival rates were assessed (Table 5).

[3] = system: seedlings of inbred lines 83IDI1 or 91DUQ1; assay: Example 10: seedling survival after unsubmerged centrifugation for 3 or 180 min with colchicine; type: in vivo; conditions: 1250 ppm colchicine submerged 50 g 3 min, after one week
Experimental: Seedlings of one of two genetically diverse inbred lines (83IDI1 or 91DUQ1) were germinated in a greenhouse and removed from soil or growth media at the V1-V3 growth stage and rinsed with water to remove residual soil. All seedlings were then secured in PCSs comprising wraps and rods, like that shown in FIG. 9, and subjected to a submerged spin at 50 g in a liquid treatment solution comprising 1250 ppm colchicine for 3 min.
Following the first, submerged centrifugation, the plant treatment solution was decanted and the bundled seedlings were subjected to an unsubmerged centrifugation at 340 g for either 3 or 180 min.
Following the second centrifugation, the plants were removed from the centrifugation container and rinsed with water to remove any remaining colchicine solution, and then recovered and tended in a light, humidity, and temperature-controlled greenhouse for one week, then the number of plants surviving were counted to determine the survival rate within each treatment.

SMILES: COc1cc2c(c(OC)c1OC)-c1ccc(OC)c(=O)cc1[C@@H](NC(C)=O)CC2 [colchicine]
- DE ([1]; V1-V2 growth stage): over 70%
- doubling efficiency, average ([1]; V4-V5 growth stage): ~30%
- doubling efficiency, median ([1]; V4-V5 growth stage): 36.7%
- average success rate (seedlings; Eder and Chalyk (2002), procedure of Deimling et al.: 0.06% colchicine and DMSO, 12 hours, dark room, range of genotypes): ~50%
- doubling rate (seedlings; Gayen et al. (1994): coleoptile tips removed, extended (6+ hours) soak, colchicine 0.1% or less): 18.05%
- DE ([2]; 600 ppm colchicine, incubation 3 min): 0.41
- DE ([2]; 600 ppm colchicine, incubation 3 hrs): 0.78
- DE ([2]; 800 ppm colchicine, incubation 3 min): 0.66
- DE ([2]; 800 ppm colchicine, incubation 3 hrs): 0.79
- 3 week post transplanting survival rate (haploid corn seedlings; either haploid line, regardless of colchicine concentration or second spin): higher than 80%
- 3-wk Survival (field transplanting) (haploid corn seedlings; haploid parent 01DKD2, 1000 ppm colchicine, submerged 10 min, no second spin): 94%
- 3-wk Survival (field transplanting) (haploid corn seedlings; haploid parent 01DKD2, 1250 ppm colchicine, submerged 3 min, unsubmerged 3 min, 335 g): 89%
- 3-wk Survival (field transplanting) (haploid corn seedlings; haploid parent 83IDI1, 1000 ppm colchicine, submerged 10 min, no second spin): 81%
- 3-wk Survival (field transplanting) (haploid corn seedlings; haploid parent 83IDI1, 1250 ppm colchicine, submerged 3 min, unsubmerged 3 min, 335 g): 83%
- Survival ([3]; pedigree 83IDI1, unsubmerged 340 g for 3 minutes): 93%
- Survival ([3]; pedigree 83IDI1, unsubmerged 340 g for 180 minutes): 94%
- Survival ([3]; pedigree 91DUQ1, unsubmerged 340 g for 3 minutes): 95%
- Survival ([3]; pedigree 91DUQ1, unsubmerged 340 g for 180 minutes): 96%
